From patent US20120258926A1, “FORMULATIONS OF ACADESINE” (priority 2009, published 2012)
Values after ≈ are worked out from the molar mass of the structure shown. Like-named read-outs stand apart in the source and are kept apart here.

Experiment: Solubility data of acadesine in injectable solution
Type: physicochemical

solubility (5° C., injectable solution pH 6.0-8.0 (with antioxidant), read-out: solubility data supports): 18 mg/mL (≈ 69.7 mM)
solubility (5° C., injectable solution pH 7.2-8.0, read-out: solubility data supports): 18 mg/mL (≈ 69.7 mM)
solubility (5° C., injectable solution pH range 8.8-9.6, read-out: Available solubility data supports up to): ≤ 21.5 mg/mL
solubility (5 °C, injectable solution pH 8.8-9.6, read-out: solubility data supports): 18 mg/mL (≈ 69.7 mM)
solubility (Room temperature, injectable solution pH 6.0-8.0 (with antioxidant), read-out: solubility data supports): 60 mg/mL (≈ 232 mM)
solubility (Room temperature, injectable solution pH 7.2-8.0, read-out: solubility data supports): 60 mg/mL (≈ 232 mM)
solubility (Room temperature, injectable solution pH 8.8-9.6, read-out: solubility data supports): 60 mg/mL (≈ 232 mM)
SMILES: NC(=O)c1ncn([C@@H]2O[C@H](CO)[C@@H](O)[C@H]2O)c1N [Acadesine, 5-aminoimidazole-4-carboxamide (AICA) riboside]
